Legend:
Format in all cases: cell-based, human
[1] = target: PPARγ LBD, sensor 110PPARγ383 (UniProt P37231+P9WHJ3, V318L)
[2] = target: PPARγ LBD, sensor 100PPARγ383 (UniProt P37231+P9WHJ3, V318L)
[3] = target: PPARγ LBD, sensor 110PPARγ393 (UniProt P37231+P9WHJ3, V318L)
[4] = target: PPARγ LBD, sensor 110PPARγ_3GS_403 (UniProt P37231+P9WHJ3, V318L)
[5] = target: PPARγ LBD, sensor 94_1GS_PPARγ_1GS_403 (UniProt P37231+P9WHJ3, V318L)
[6] = target: PPARγ LBD, sensor 94PPARγ403 (UniProt P37231+P9WHJ3, V318L)
[7] = target: PPARγ LBD, sensor 110PPARγ_3GS_383 (UniProt P37231+P9WHJ3, V318L)

Structure (SMILES) | EC50 [1] | effect on cell growth [1] | effect on cell growth [2] | effect on cell growth [3] | EC50 [4] | effect on cell growth [5] | IC50 ([1]; read-out: IC50 for antagonism) | effect on cell growth [6] | EC50 [5] | effect on cell growth [7]
CCCCC/C=C/C=C1/C(=O)C=C[C@@H]1C/C=C\CCCC(=O)O [15D-PGJ2, 15-deoxy-Δ^12,14-Prostaglandin J2] | could not be calculated | didn't induce a significant cell growth signal | significant response | almost no effect | could not be calculated | strongest observed response |  |  |  | 
C[C@]12CC[C@@H]3c4ccc(O)cc4CC[C@H]3[C@@H]1CC[C@@H]2O [E2, 17β-estradiol] |  | no significant effect |  |  |  |  |  |  |  | 
O=C(Nc1ccccc1)c1cc([N+](=O)[O-])ccc1Cl [GW9662] |  | inhibited cell growth | inhibitory effect | increased cell growth substantially | 1100 ± 200 nM |  | 1800 ± 1200 nM | strong positive responses | 500 ± 100 nM | weak positive response
